Laboratory results as given in the RepoRT retention time repository (doi:10.1016/j.jchromb.2020.122105).

What was measured:
Details in all cases: stereoisomer not certain
[1] = RP, Waters CORTECS T3, 100 × 2.1 mm, 2.7 µm, 0.3 mL/min, estimated dead time 0.73 min; A: water + 0.1% formic acid, pH 3; B: methanol + 0.1% formic acid, pH 3; gradient (min/%B) 0/0 1/0 6/5 30/100 35/100 35.1/0 40/0
[2] = RP, Waters CORTECS T3, 100 × 2.1 mm, 2.7 µm, 0.3 mL/min, estimated dead time 0.73 min; A: water + 0.1% formic acid, pH 3; B: methanol + 0.1% formic acid, pH 3; gradient (min/%B) 0/5 5/5 25/95 25.1/100 35/100 35.1/5 45/5
[3] = RP, Waters CORTECS T3, 100 × 2.1 mm, 2.7 µm, 0.3 mL/min, estimated dead time 0.73 min; A: water + 0.1% formic acid, pH 3; B: methanol + 0.1% formic acid, pH 3; gradient (min/%B) 0/0 5/0 25/100 30/100 30.1/0 35/0
[4] = HILIC, Merck SeQuant ZIC-HILIC, 150 × 2.1 mm, 5 µm, 0.75 mL/min, estimated dead time 0.44 min; A: water + 10 mM ammonium formate, pH 6; B: 5% water + 95% acetonitrile + 10 mM ammonium formate, pH 6; gradient (min/%B) 0/95 5/95 20/57 25/57 30/95 40/95
[5] = RP, Waters CORTECS T3, 100 × 2.1 mm, 2.7 µm, 0.2 mL/min, estimated dead time 1.1 min; A: water + 0.1% formic acid, pH 3; B: methanol + 0.1% formic acid, pH 3; gradient (min/%B) 0/0 1/0 6/5 30/100 35/100 35.1/0 40/0
[6] = RP, Waters CORTECS T3, 100 × 2.1 mm, 2.7 µm, 0.2 mL/min, estimated dead time 1.1 min; A: water + 0.045% formic acid + 0.11% ammonium hydroxide, pH 7; B: methanol; gradient (min/%B) 0/5 5/5 25/95 25.1/100 35/100 35.1/5 45/5
[7] = RP, Waters ACQUITY UPLC BEH C18, 100 × 2.1 mm, 1.7 µm, 0.1 mL/min, estimated dead time 2.2 min; A: water + 0.1% formic acid, pH 3; B: methanol + 0.1% formic acid, pH 3; gradient (min/%B) 0/5 5/5 25/95 25.1/100 35/100 35.1/5 45/5
[8] = HILIC, Waters XBridge BEH Amide, 100 × 2.1 mm, 2.5 µm, 0.5 mL/min, estimated dead time 0.44 min; A: water + 0.1% acetic acid + 10 mM ammonium acetate, pH 4; B: 5% water + 95% acetonitrile + 0.1% acetic acid + 10 mM ammonium acetate, pH 4; gradient (min/%B) 0/95 5/95 20/57 25/57 30/95 40/95
[9] = RP, Waters ACQUITY UPLC BEH C18, 100 × 2.1 mm, 1.7 µm, 0.1 mL/min, estimated dead time 2.2 min; A: water + 0.1% formic acid, pH 3; B: methanol + 0.1% formic acid, pH 3; gradient (min/%B) 0/5 5/5 25/100 30/100 30.1/5 35/5
[10] = RP, Waters ACQUITY UPLC BEH C18, 100 × 2.1 mm, 1.7 µm, 0.1 mL/min, estimated dead time 2.2 min; A: water + 0.045% formic acid + 0.11% ammonium hydroxide, pH 7; B: methanol; gradient (min/%B) 0/5 5/5 25/95 25.1/100 35/100 35.1/5 45/5
[11] = RP, Waters CORTECS T3, 100 × 2.1 mm, 2.7 µm, 0.1 mL/min, estimated dead time 2.2 min; A: water + 0.1% formic acid, pH 3; B: methanol + 0.1% formic acid, pH 3; gradient (min/%B) 0/0 1/0 6/5 30/100 35/100 35.1/0 40/0
[12] = RP, Thermo Scientific Hypercarb, 150 × 2.1 mm, 5 µm, 0.1 mL/min, estimated dead time 3.3 min; A: water + 0.1% formic acid, pH 3; B: methanol + 0.1% formic acid, pH 3; gradient (min/%B) 0/5 5/5 20/100 35/100 35.1/5 45/5
[13] = RP, Waters ACQUITY UPLC BEH C18, 100 × 2.1 mm, 1.7 µm, 0.2 mL/min, estimated dead time 1.1 min; A: water + 0.025% formic acid + 20 mM ammonium acetate + 0.055% ammonium hydroxide, pH 7; B: methanol; gradient (min/%B) 0/5 5/5 25/100 30/100 30.1/5 35/5
[14] = HILIC, Merck SeQuant ZIC-HILIC, 150 × 2.1 mm, 5 µm, 0.75 mL/min, estimated dead time 0.44 min; A: water + 0.1% acetic acid + 10 mM ammonium acetate, pH 4; B: 5% water + 95% acetonitrile + 0.1% acetic acid + 10 mM ammonium acetate, pH 4; gradient (min/%B) 0/95 5/95 20/57 25/57 30/95 40/95
[15] = RP, Waters CORTECS T3, 100 × 2.1 mm, 2.7 µm, 0.25 mL/min, estimated dead time 0.88 min; A: water + 0.1% formic acid, pH 3; B: methanol + 0.1% formic acid, pH 3; gradient (min/%B) 0/0 1/0 6/5 30/100 35/100 35.1/0 40/0
[16] = RP, Waters CORTECS T3, 100 × 2.1 mm, 2.7 µm, 0.3 mL/min, estimated dead time 0.73 min; A: water + 0.1% formic acid, pH 3; B: methanol + 0.1% formic acid, pH 3; gradient (min/%B) 0/5 5/5 25/100 30/100 30.1/5 35/5
[17] = RP, Waters CORTECS T3, 100 × 2.1 mm, 2.7 µm, 0.15 mL/min, estimated dead time 1.5 min; A: water + 0.1% formic acid, pH 3; B: methanol + 0.1% formic acid, pH 3; gradient (min/%B) 0/0 1/0 6/5 30/100 35/100 35.1/0 40/0
[18] = RP, Waters CORTECS T3, 100 × 2.1 mm, 2.7 µm, 0.1 mL/min, estimated dead time 2.2 min; A: water + 0.1% formic acid, pH 3; B: methanol + 0.1% formic acid, pH 3; gradient (min/%B) 0/5 5/5 25/95 25.1/100 35/100 35.1/5 45/5
[19] = RP, Waters ACQUITY UPLC BEH C18, 100 × 2.1 mm, 1.7 µm, 0.1 mL/min, estimated dead time 2.2 min; A: water + 0.1% formic acid, pH 3; B: methanol + 0.1% formic acid, pH 3; gradient (min/%B) 0/5 5/5 25/95 25.1/100 35/100 35.1/5 45/5; remark: listed apart in the source
[20] = as above; remark: listed apart in the source
[21] = RP, Waters CORTECS T3, 100 × 2.1 mm, 2.7 µm, 0.3 mL/min, estimated dead time 0.73 min; A: water + 0.1% formic acid, pH 3; B: methanol + 0.1% formic acid, pH 3; gradient (min/%B) 0/0 5/0 25/100 30/100 30.1/0 35/0; remark: listed apart in the source
[22] = RP, Waters ACQUITY UPLC BEH C18, 100 × 2.1 mm, 1.7 µm, 0.2 mL/min, estimated dead time 1.1 min; A: water + 0.025% formic acid + 20 mM ammonium acetate + 0.055% ammonium hydroxide, pH 7; B: methanol; gradient (min/%B) 0/5 5/5 25/100 30/100 30.1/5 35/5; remark: listed apart in the source
[23] = RP, Waters CORTECS T3, 100 × 2.1 mm, 2.7 µm, 0.2 mL/min, estimated dead time 1.1 min; A: water + 0.1% formic acid, pH 3; B: methanol + 0.1% formic acid, pH 3; gradient (min/%B) 0/0 1/0 6/5 30/100 35/100 35.1/0 40/0; remark: listed apart in the source
[24] = RP, Waters ACQUITY UPLC BEH C18, 100 × 2.1 mm, 1.7 µm, 0.2 mL/min, estimated dead time 1.1 min; A: water + 0.1% formic acid, pH 3; B: methanol + 0.1% formic acid, pH 3; gradient (min/%B) 0/5 5/5 25/100 30/100 30.1/5 35/5
[25] = RP, Waters CORTECS T3, 100 × 2.1 mm, 2.7 µm, 0.2 mL/min, estimated dead time 1.1 min; A: water + 0.1% formic acid, pH 3; B: methanol + 0.1% formic acid, pH 3; gradient (min/%B) 0/5 5/5 25/95 25.1/100 35/100 35.1/5 45/5
[26] = RP, Waters CORTECS T3, 100 × 2.1 mm, 2.7 µm, 0.25 mL/min, estimated dead time 0.88 min; A: water + 0.1% formic acid, pH 3; B: methanol + 0.1% formic acid, pH 3; gradient (min/%B) 0/5 5/5 25/95 25.1/100 35/100 35.1/5 45/5
[27] = RP, Waters CORTECS T3, 100 × 2.1 mm, 2.7 µm, 0.3 mL/min, estimated dead time 0.73 min; A: water + 0.1% formic acid, pH 3; B: methanol + 0.1% formic acid, pH 3; gradient (min/%B) 0/0 1/0 6/5 30/100 35/100 35.1/0 40/0; remark: listed apart in the source

LC retention time [1] [min] | LC retention time [2] [min] | LC retention time [3] [min] | LC retention time [5] [min] | LC retention time [6] [min] | LC retention time [7] [min] | LC retention time [8] [min] | LC retention time [9] [min] | LC retention time [10] [min] | LC retention time [11] [min] | LC retention time [13] [min] | LC retention time [14] [min] | LC retention time [15] [min] | LC retention time [16] [min] | LC retention time [17] [min] | LC retention time [18] [min] | LC retention time [19] [min] | LC retention time [20] [min] | LC retention time [22] [min] | LC retention time [23] [min] | Compound | also measured
8.04 | 4.96 | 8.57 | 9.42 | 10.7 | 10.6 | 2.22 | 10.5 | 13.5 | 7.08 | 10.5 | 1.51 | 8.69 | 5.02 | 10.7 | 10.9 | 2.66 | – | – | – | Cn1cnc2c(ncn2C2OC(CO)C(O)C2O)c1=N (stereo not given) [1-METHYLADENOSINE] | LC retention time [4]: 1.56 min; LC retention time [12]: 21.8 min
10.1 | 8.59 | 9.9 | 11.3 | 12.3 | 13.1 | 1.61 | 12.9 | 15.4 | 9.84 | 12.1 | 1.23 | 10.7 | 8.5 | 12.6 | 13 | 13.1 | – | – | – | CSCC1OC(n2cnc3c(N)ncnc32)C(O)C1O (stereo not given) [5'-METHYLTHIOADENOSINE] | LC retention time [4]: 1.29 min

Second part, the compound before the results:

Compound | LC retention time [1] [min] | LC retention time [2] [min] | LC retention time [3] [min] | LC retention time [5] [min] | LC retention time [6] [min] | LC retention time [7] [min] | LC retention time [8] [min] | LC retention time [9] [min] | LC retention time [10] [min] | LC retention time [11] [min] | LC retention time [13] [min] | LC retention time [14] [min] | LC retention time [15] [min] | LC retention time [16] [min] | LC retention time [17] [min] | LC retention time [18] [min] | LC retention time [19] [min] | LC retention time [20] [min] | LC retention time [22] [min] | LC retention time [23] [min] | also measured
Nc1ccn(C2OC(CO)C3OP(=O)([O-])OC32)c(=O)n1 (stereo not given) [CYTIDINE 2',3'-CYCLIC MONOPHOSPHATE] | – | – | 0.89 | 1.34 | – | 2.66 | – | 2.74 | – | – | – | 12.1 | 1.09 | – | 1.78 | – | 2.72 | 2.67 | 1.36 | 1.35 | LC retention time [21]: 0.89 min; LC retention time [24]: 1.34 min
Nc1nc2c(ncn2C2OC3COP(=O)(O)OC3C2O)c(=O)[nH]1 (stereo not given) [GUANOSINE 3',5'-CYCLIC MONOPHOSPHATE] | 5.42 | 2.59 | – | 7.21 | – | 6.68 | 12.3 | 7.01 | – | 3.77 | – | 12.3 | 6.2 | 2.67 | 9.04 | 7.41 | 2.72 | 7.13 | 1.41 | 7.35 | LC retention time [25]: 11.1 min; LC retention time [21]: 6.99 min; LC retention time [24]: 3.76 min; LC retention time [26]: 3.22 min; LC retention time [27]: 5.71 min
Cc1cc2nc3[nH]c(=O)[nH]c(=O)c3nc2cc1C [LUMICHROME] | – | 15 | 15.3 | 18.3 | 16.4 | 19.6 | – | 19.1 | 19.5 | 16.3 | 16 | – | 17.5 | 14.6 | 19.6 | 19.6 | 19.6 | 19.6 | 13.1 | 18.3 | LC retention time [24]: 16 min; LC retention time [26]: 15.5 min
